Measured values reported in DBAASP.
In brackets after ≈: the same amount, converted by molar mass. One block for each compound: values may come before it.

Columns and labels:
Assay in all cases: ≥ marks a high value that may be exact or a test limit, other limits are often not marked, values filed in µg/mL are converted to µM
Escherichia coli BL21 = system: Escherichia coli BL21
[1] = system: Pseudomonas aeruginosa PAO1
[2] = system: Streptococcus pyogenes M1T1 5448
Acinetobacter baumannii = system: Acinetobacter baumannii
[3] = system: Bacillus cereus ATCC 11778
[4] = system: Enterococcus faecalis ATCC 29212
[5] = system: Escherichia coli ATCC 25922
Escherichia coli O157:H7 = system: Escherichia coli O157:H7
[6] = system: Listeria monocytogenes 10403s
[7] = system: Pseudomonas aeruginosa ATCC 27853
[8] = system: Salmonella enterica subsp. enterica serovar Typhimurium ATCC 13311
[9] = system: Shigella sonnei ATCC 11060
[10] = system: Staphylococcus aureus ATCC 25923
[11] = system: Staphylococcus epidermidis ATCC 12228
Vibrio cholerae O1 Inaba = system: Vibrio cholerae O1 Inaba
Escherichia coli UB1005 = system: Escherichia coli UB1005
[12] = system: Salmonella enterica subsp. enterica serovar Choleraesuis CVCC 503
[13] = system: Salmonella enterica subsp. enterica serovar Pullorum C79-13
[14] = system: Salmonella enterica subsp. enterica serovar Typhimurium ATCC 14028
[15] = system: Salmonella enterica subsp. enterica serovar Typhimurium C77-31
[16] = system: Staphylococcus aureus ATCC 29213
[17] = system: Staphylococcus aureus ATCC 43300
Staphylococcus aureus = system: Staphylococcus aureus
Streptococcus agalactiae = system: Streptococcus agalactiae
Escherichia coli KF111 = system: Escherichia coli KF111
Escherichia coli KF130 = system: Escherichia coli KF130
Escherichia coli = system: Escherichia coli
[18] = system: Pseudomonas aeruginosa H374
[19] = system: Pseudomonas aeruginosa H744
[20] = system: Pseudomonas aeruginosa K799
[21] = system: Salmonella enterica subsp. enterica serovar Typhimurium ATCC 14028s
[22] = system: Staphylococcus epidermidis

MIC (Escherichia coli BL21): 1 µM (≈ 3.06 µg/mL) | MIC [1]: 16 µM (≈ 48.9 µg/mL) | MIC [2]: 4 µM (≈ 12.2 µg/mL)
SMILES: CC[C@H](C)[C@H](NC(=O)[C@H](CCCCN)NC(=O)[C@H](CCCCN)NC(=O)[C@H](CCCCN)NC(=O)[C@H](CC(C)C)NC(=O)[C@H](CCCN=C(N)N)NC(=O)[C@H](CCC(N)=O)NC(=O)[C@H](Cc1ccccc1)NC(=O)[C@@H](NC(=O)[C@@H](NC(=O)[C@H](CCC(=O)O)NC(=O)[C@H](CCCCN)NC(=O)CNC(=O)[C@H](C)N)[C@@H](C)O)[C@@H](C)CC)C(=O)N[C@@H](CCC(N)=O)C(=O)N[C@@H](CCC(=O)O)C(=O)N[C@@H](CCCCN)C(=O)N[C@@H](Cc1c[nH]c2ccccc12)C(=O)N[C@@H](CCCCN)C(=O)N[C@@H](CCCN=C(N)N)C(=O)N[C@@H](C)C(=O)N[C@H](C(=O)N[C@H](C(=O)N[C@@H](C)C(=O)N[C@@H](Cc1c[nH]c2ccccc12)C(=O)O)[C@@H](C)CC)[C@@H](C)O [AGKETIFQRLKKKIQEKWKRATIAW]

MIC (Acinetobacter baumannii): 2.7 µM (≈ 7.81 µg/mL) | MIC [3]: 2.7 µM (≈ 7.81 µg/mL) | MIC [4]: 10.8 µM (≈ 31.2 µg/mL) | MIC [5]: 5.4 µM (≈ 15.6 µg/mL) | MIC (Escherichia coli O157:H7): ≥ 86.4 µM | MIC [6]: 1.35 µM (≈ 3.91 µg/mL) | MIC [7]: 2.7 µM (≈ 7.81 µg/mL) | MIC [8]: 2.7 µM (≈ 7.81 µg/mL) | MIC [9]: 1.35 µM (≈ 3.91 µg/mL) | MIC [10]: 5.4 µM (≈ 15.6 µg/mL) | MIC [11]: 1.35 µM (≈ 3.91 µg/mL)
SMILES: CC[C@H](C)[C@H](NC(=O)[C@H](CCCN=C(N)N)NC(=O)[C@H](CCCCN)NC(=O)[C@H](C)NC(=O)[C@@H](NC(=O)[C@@H](N)CCCCN)[C@@H](C)CC)C(=O)N[C@@H](Cc1c[nH]c2ccccc12)C(=O)N[C@@H](CCCCN)C(=O)N[C@H](C(=O)N[C@@H](CC(C)C)C(=O)N[C@@H](CCCN=C(N)N)C(=O)N[C@@H](CCCN=C(N)N)C(=O)N[C@@H](CCCN=C(N)N)C(=O)N[C@@H](CC(C)C)C(=O)N[C@@H](Cc1ccccc1)C(=O)N[C@@H](CCCN=C(N)N)C(=O)N[C@@H](CCCN=C(N)N)C(=O)N[C@H](C(=O)N[C@@H](CCCCN)C(=O)N[C@@H](CCCCN)C(=O)N[C@H](C(=O)N[C@@H](C)C(=O)NCC(N)=O)C(C)C)C(C)C)[C@@H](C)CC [KIAKRIWKILRRRLFRRVKKVAG]
MIC (Vibrio cholerae O1 Inaba): 2.7 µM (≈ 7.81 µg/mL)

MIC (Escherichia coli KF111): 0.342 µM (≈ 1 µg/mL) | MIC (Escherichia coli KF130): 0.342 µM (≈ 1 µg/mL) | MIC (Escherichia coli UB1005): 0.171 µM (≈ 0.5 µg/mL) | MIC (Escherichia coli): 0.171 µM (≈ 0.5 µg/mL) | MIC [7]: 4 µM (≈ 11.7 µg/mL) | MIC [18]: 0.685 µM (≈ 2 µg/mL) | MIC [19]: 0.685 µM (≈ 2 µg/mL) | MIC [20]: 0.685 µM (≈ 2 µg/mL) | MIC [21]: 1.37 µM (≈ 4 µg/mL) | MIC (Staphylococcus aureus): 1.37 µM (≈ 4 µg/mL) | MIC [22]: 1.37 µM (≈ 4 µg/mL)
SMILES: CC[C@H](C)[C@H](NC(=O)[C@H](C)NC(=O)[C@H](CCCCN)NC(=O)[C@H](CC(C)C)NC(=O)[C@H](C)NC(=O)[C@@H](NC(=O)[C@H](Cc1cnc[nH]1)NC(=O)[C@H](CC(C)C)NC(=O)[C@@H](NC(=O)[C@@H](NC(=O)[C@H](CCCCN)NC(=O)[C@@H](NC(=O)[C@H](C)NC(=O)[C@H](CO)NC(=O)[C@H](CCCCN)NC(=O)[C@H](Cc1ccccc1)NC(=O)[C@@H](NC(=O)[C@H](CCCCN)NC(=O)[C@H](CC(C)C)NC(=O)[C@H](Cc1ccccc1)NC(=O)[C@H](CO)NC(=O)[C@H](CCCCN)NC(=O)[C@H](Cc1c[nH]c2ccccc12)NC(=O)[C@@H](N)CCCCN)[C@@H](C)O)C(C)C)[C@@H](C)O)C(C)C)[C@@H](C)O)C(=O)N[C@@H](CO)C(=O)N[C@@H](CO)C(=O)O [KWKSFLKTFKSAVKTVLHTALKAISS]

MIC (Escherichia coli KF111): 0.339 µM (≈ 1 µg/mL) | MIC (Escherichia coli KF130): 0.339 µM (≈ 1 µg/mL) | MIC (Escherichia coli UB1005): 0.17 µM (≈ 0.5 µg/mL) | MIC (Escherichia coli): 0.17 µM (≈ 0.5 µg/mL) | MIC [18]: 2.72 µM (≈ 8 µg/mL) | MIC [19]: 2.72 µM (≈ 8 µg/mL) | MIC [20]: 5.43 µM (≈ 16 µg/mL) | MIC [21]: 1.36 µM (≈ 4 µg/mL) | MIC (Staphylococcus aureus): 10.9 µM (≈ 32 µg/mL) | MIC [22]: 1.36 µM (≈ 4 µg/mL)
SMILES: CC[C@H](C)[C@H](NC(=O)[C@H](C)NC(=O)[C@H](CCCCN)NC(=O)[C@H](CC(C)C)NC(=O)[C@H](C)NC(=O)[C@@H](NC(=O)[C@H](Cc1cnc[nH]1)NC(=O)[C@H](Cc1ccccc1)NC(=O)[C@@H](NC(=O)[C@@H](NC(=O)[C@H](CCCCN)NC(=O)[C@H](C)NC(=O)[C@@H]1CCCN1C(=O)[C@H](CO)NC(=O)[C@H](CCCCN)NC(=O)[C@H](CC(C)C)NC(=O)[C@@H](NC(=O)[C@H](CCCN=C(N)N)NC(=O)[C@H](CC(C)C)NC(=O)[C@H](Cc1ccccc1)NC(=O)[C@H](CO)NC(=O)[C@H](CCCCN)NC(=O)[C@H](Cc1c[nH]c2ccccc12)NC(=O)[C@@H](N)CCCCN)[C@@H](C)O)[C@@H](C)O)C(C)C)[C@@H](C)O)C(=O)N[C@@H](CO)C(=O)N[C@@H](CO)C(=O)O [KWKSFLRTLKSPAKTVFHTALKAISS]

The next lines start with the compound.

SMILES: CC[C@H](C)[C@H](NC(=O)[C@H](CC(=O)O)NC(=O)[C@H](Cc1ccccc1)NC(=O)[C@H](CC(C)C)NC(=O)CN)C(=O)N[C@H](C(=O)N[C@@H](CCCCN)C(=O)N[C@@H](CCCCN)C(=O)N[C@H](C(=O)N[C@@H](C)C(=O)NCC(N)=O)C(C)C)C(C)C [GLFDIVKKVAG]
MIC (Acinetobacter baumannii): ≥ 218 µM | MIC [3]: ≥ 218 µM | MIC [4]: > 218 µM | MIC [5]: > 218 µM | MIC (Escherichia coli O157:H7): ≥ 218 µM | MIC [6]: ≥ 218 µM | MIC [7]: > 218 µM | MIC [8]: ≥ 218 µM | MIC [9]: ≥ 218 µM | MIC [10]: > 218 µM | MIC [11]: > 218 µM | MIC (Vibrio cholerae O1 Inaba): ≥ 218 µM

SMILES: CC[C@H](C)[C@H](N)C(=O)N[C@@H](CS)C(=O)N[C@@H](CCCN=C(N)N)C(=O)N[C@@H](CCCCN)C(=O)N1CCC[C@H]1C(=O)N[C@H](C(=O)N[C@H](C(=O)N[C@@H](CS)C(=O)N[C@@H](CCCN=C(N)N)C(=O)N[C@@H](CCCCN)C(=O)N1CCC[C@H]1C(=O)N[C@H](C(=O)N[C@H](C(=O)N[C@@H](CS)C(=O)N[C@@H](CCCN=C(N)N)C(=O)N[C@@H](CCCCN)C(=O)N1CCC[C@H]1C(=O)N[C@H](C(=O)N[C@H](C(=O)N[C@@H](CS)C(=O)N[C@@H](CCCN=C(N)N)C(=O)N[C@@H](CCCCN)C(=O)N1CCC[C@H]1C(=O)N[C@H](C(N)=O)[C@@H](C)CC)[C@@H](C)CC)[C@@H](C)CC)[C@@H](C)CC)[C@@H](C)CC)[C@@H](C)CC)[C@@H](C)CC [ICRKPIICRKPIICRKPIICRKPI]
MIC [4]: > 64 µM | MIC (Escherichia coli UB1005): 2 µM (≈ 5.72 µg/mL) | MIC [12]: 8 µM (≈ 22.9 µg/mL) | MIC [13]: 16 µM (≈ 45.8 µg/mL) | MIC [14]: 2 µM (≈ 5.72 µg/mL) | MIC [15]: 4 µM (≈ 11.4 µg/mL) | MIC [16]: > 64 µM | MIC [17]: > 64 µM | MIC (Staphylococcus aureus): > 64 µM | MIC [11]: > 64 µM | MIC (Streptococcus agalactiae): ≥ 64 µM

SMILES: CC[C@H](C)[C@H](N)C(=O)N[C@H](C(=O)N[C@@H](CS)C(=O)N[C@@H](CCCN=C(N)N)C(=O)N[C@@H](CCCCN)C(=O)N1CCC[C@H]1C(=O)N[C@H](C(=O)N[C@H](C(=O)N[C@@H](CS)C(=O)N[C@@H](CCCN=C(N)N)C(=O)N[C@@H](CCCCN)C(=O)N1CCC[C@H]1C(=O)N[C@H](C(=O)N[C@H](C(=O)N[C@@H](CS)C(=O)N[C@@H](CCCN=C(N)N)C(=O)N[C@@H](CCCCN)C(=O)N1CCC[C@H]1C(=O)N[C@H](C(=O)N[C@H](C(N)=O)[C@@H](C)CC)[C@@H](C)CC)[C@@H](C)CC)[C@@H](C)CC)[C@@H](C)CC)[C@@H](C)CC)[C@@H](C)CC [IICRKPIICRKPIICRKPII]
MIC [4]: > 64 µM | MIC [5]: 4 µM (≈ 9.5 µg/mL) | MIC (Escherichia coli UB1005): 4 µM (≈ 9.5 µg/mL) | MIC [12]: 16 µM (≈ 38 µg/mL) | MIC [13]: ≥ 32 µM | MIC [14]: 8 µM (≈ 19 µg/mL) | MIC [15]: 8 µM (≈ 19 µg/mL) | MIC [16]: > 64 µM | MIC [17]: 64 µM (≈ 152 µg/mL) | MIC (Staphylococcus aureus): > 64 µM | MIC [11]: 64 µM (≈ 152 µg/mL) | MIC (Streptococcus agalactiae): ≥ 64 µM
